Experimental data reported in patent publication US9642941B2, “Implantable modular hydrogel for salivary gland restoration” (WILLIAM MARSH RICE UNIVERSITY, priority 2011, dated 2017).
Structures can show the parent of a compound that is named as a salt.

Tests used:
β adrenergic receptors = experiment: Exocytic granule production and α-amylase staining in salivary acinar-like cells on/in HA hydrogels; format: cell-based, human; conditions: 50 μM
Protocol: Cells seeded (1×10^5 cells/gel) on/in hydrogels were treated with varying concentrations (10 μM to 100 μM) of isoproterenol hydrochloride (Santa Cruz Biotechnology) and norepinephrine hydrochloride (Sigma), each of which induce granule production and exocytosis, for various time points from 15 min-2 h. After treatment, culture medium was removed and cells were fixed immediately with 100% methanol and stained with α-amylase for microscopic analysis. Functionality of salivary acinar-like cells was assessed by response to neurotransmitter agonists. Norepinephrine binding to the β adrenergic receptors activates the protein secretion pathway. In this study, the sympathomimetic β adrenergic agonists, norepinephrine and isoproterenol, were used to stimulate protein production and exocytosis. Salivary acinar-like cells cultured on/in hydrogels were treated with 50 μM isoproterenol for 15 min to 1 hr. After treatment, cells were immediately fixed and stained, then analyzed for granule formation and α-amylase expression. FIGS. 21-25 quantify the extent of amylase response, using the intensity of fluorescence staining as a surrogate. […] Exocytosing granules stained in red for α-amylase are seen budding out from the cell membrane in FIG. 21C, E, F. Granule production has been quantified in FIG. 26. Upon stimulation, acini-like structures in 3D also secreted α-amylase into the hydrogel (FIG. 21E, F). α-Amylase staining is quantified in FIGS. 23-25.

M3 muscarinic receptors = target: T1, M3 muscarinic receptors (Homo sapiens, UniProt P20309); experiment: Intracellular calcium release (Fluo-4) in acini-like structures on 2.5D / in 3D HA hydrogels treated with acetylcholine; format: cell-based
T1 construct: Parotid gland tissue was collected from patients aged 40-55 years undergoing surgery; endogenous in cells; host or cells: primary acinar-like cells (passage 3-4) from patients' parotid gland tissue, on 2.5D or in 3D HA hydrogels
Protocol: Intracellular calcium [Cai] release studies utilized the calcium indicator dye, Fluo-4 (Invitrogen). Cells were seeded at 1×10^5 cells/gel in cell culture inserts as before. Cells on 2.5D and in 3D hydrogels were cultured for 12 days. Fluo-4 was suspended in 0.8% (w/v) pluronic acid and mixed with 8 mL of 1× Hanks' balanced salt solution (HBSS) without calcium. Cell-seeded hydrogels were incubated with Fluo-4 suspended in pluronic acid for 30 min at 37° C. After 30 min, cells were washed twice with 1×HBSS, and incubated for 30 min in HBSS. After loading and recovery, hydrogels were imaged using a Zeiss LSM 5-live high-speed confocal microscope. Baseline fluorescence was established for 30 sec at 488 nm. Cell-seeded hydrogels then were treated with various concentrations (ranging from 50 μM-500 μM) of the muscarinic agonist acetylcholine chloride. 2.5D hydrogels were flipped so that cells were on the bottom of the chamber slides. 50 μL of the agonist was added to the bottom of the chamber containing 50 μL medium. 3D hydrogels were suspended in 100 μL of medium and treated with 100 μL of agonist. Resulting increases in Cai levels were captured in a series of image scans and by graph plot.
To stimulate fluid secretion, salivary acinar-like cells were treated with acetylcholine. Addition of 50 μM acetylcholine induced a robust calcium response in self-assembling acini-like structures cultured on 2.5D hydrogels (FIG. 27A). Acini-like structures on hydrogels were imaged without saline buffer to minimize movement of hydrogels in the liquid. The calcium response peak seen at ˜5 min can be attributed to the diffusion time needed by the neurotransmitter to pass through the hydrogel to the cells. Treatment with 100 μM acetylcholine produced calcium oscillations lasting over 20 min in multiple cells within a self-assembled acinus-like structure (FIG. 27B). Oscillations from different structures varied in intensity. […] Experiments were performed three times with each agonist concentration, on separate hydrogel cultures. Data were recorded from 3-4 acini-like structures each time. […] Positive controls used a hypotonic solution to induce a calcium response.
Treatment with 50 μM acetylcholine induced calcium oscillations that lasted over 20 minutes in spheroid structures encapsulated in 3D hydrogels (FIG. 27D). […] Compared to the response seen among 2.5D cultures, the increase in [Ca^2+] was quicker in 3D, where cells responded to acetylcholine treatment within 30 seconds while cells in 2.5D took nearly 300 seconds. […] Thus, cell response to acetylcholine agonist in 3D was faster, more intense, and more prolonged than cell response in 2.5D.

HP = conditions: read-out: Dissociation constant (Kd) of complex with HP; cited from earlier work
[1] = tested on: spheroids in 3D HA hydrogels; experiment: FGF7 treatment of spheroids in 3D HA hydrogels; format: cell-based, human; conditions: 25 ng/mL FGF7 daily for 10 d and 12 d
Protocol: FIG. 14 is a picture depicting organized spheroids. […] (a) Untreated cells at 20 d culture. (b,c) Spheroids treated with 25 ng/mL FGF7 daily for (b) 10 d and (c) 12 d.
Functional neotissue glands must advance beyond spherical lumen to initiate directional delivery of secretory products and recreate the differentiated roles of fluid producing acinar and fluid resorbing ductal cells. Recent work identified the specific roles of FGF7 and FGF10 in inducing ductal elongation and branching, respectively. These roles are tied to the cells' perceived gradients of each GF from a point source, defined by diffusion through ECM and controlled by their binding to HS (in Pln and other proteoglycans). […] When delivered through media, FGF7 may induce overall larger spheroids (as expected, when FGF7 is not delivered from a directional point source). […] HGPs are an optimal mechanism for directional controlled delivery of FGF7 and FGF10.

T1 sequence (P20309 whole entry): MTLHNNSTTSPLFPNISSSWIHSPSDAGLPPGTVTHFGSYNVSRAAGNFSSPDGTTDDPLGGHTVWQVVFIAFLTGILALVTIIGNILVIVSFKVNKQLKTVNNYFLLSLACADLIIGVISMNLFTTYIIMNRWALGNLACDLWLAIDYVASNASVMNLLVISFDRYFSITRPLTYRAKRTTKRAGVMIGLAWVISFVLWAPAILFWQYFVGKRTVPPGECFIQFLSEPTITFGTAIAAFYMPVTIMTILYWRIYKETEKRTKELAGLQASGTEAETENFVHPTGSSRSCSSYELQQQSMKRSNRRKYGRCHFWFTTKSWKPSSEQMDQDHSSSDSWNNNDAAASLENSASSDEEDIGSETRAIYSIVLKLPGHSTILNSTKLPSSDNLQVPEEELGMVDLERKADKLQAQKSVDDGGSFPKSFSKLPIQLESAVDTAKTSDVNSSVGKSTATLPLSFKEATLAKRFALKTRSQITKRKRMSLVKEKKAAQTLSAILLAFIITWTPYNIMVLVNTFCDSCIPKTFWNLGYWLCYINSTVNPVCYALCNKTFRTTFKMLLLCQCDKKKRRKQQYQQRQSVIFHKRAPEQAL

CC(C)NCC(O)c1ccc(O)c(O)c1 (stereo not drawn) [isoproterenol, isoproterenol hydrochloride]
α-Amylase localisation (β adrenergic receptors; 15 min): α-amylase near the membrane periphery
Granule formation and α-amylase staining (β adrenergic receptors; 1 h, 2.5D and 3D): presence of granules and robust α-amylase staining

CC(=O)OCC[N+](C)(C)C.[Cl-] [ACh, acetylcholine chloride]
Average Peak Height (Intensity) (M3 muscarinic receptors; 2.5D hydrogel, 50 μM ACh): 58 ± 11
Average Peak Length (M3 muscarinic receptors; 2.5D hydrogel, 50 μM ACh): 42 ± 21 s
Percent Responders (M3 muscarinic receptors; 2.5D hydrogel, 50 μM ACh): 33%
Average Peak Height (Intensity) (M3 muscarinic receptors; 2.5D hydrogel, 100 μM ACh): 10 ± 3
Average Peak Length (M3 muscarinic receptors; 2.5D hydrogel, 100 μM ACh): 46 ± 9 s
Percent Responders (M3 muscarinic receptors; 2.5D hydrogel, 100 μM ACh): 22%
Time of calcium response peak (M3 muscarinic receptors; 2.5D hydrogels, 50 μM): ~5 min
Duration of calcium oscillations (M3 muscarinic receptors; 2.5D hydrogels, 100 μM): over 20 min
Calcium oscillations (M3 muscarinic receptors; 3D cultures, 100 μM): induced similar oscillations
Average Peak Height (Intensity) (M3 muscarinic receptors; 3D hydrogel, 50 μM ACh): 39 ± 6
Average Peak Length (M3 muscarinic receptors; 3D hydrogel, 50 μM ACh): 164 ± 8 s
Percent Responders (M3 muscarinic receptors; 3D hydrogel, 50 μM ACh): 43%
Average Peak Height (Intensity) (M3 muscarinic receptors; 3D hydrogel, 100 μM ACh): 14 ± 8
Average Peak Length (M3 muscarinic receptors; 3D hydrogel, 100 μM ACh): 180 ± 34 s
Percent Responders (M3 muscarinic receptors; 3D hydrogel, 100 μM ACh): 16%
Duration of calcium oscillations (M3 muscarinic receptors; 3D hydrogels, 50 μM): over 20 minutes
Time until cells responded with increase in [Ca2+] (M3 muscarinic receptors; cells in 2.5D): ~300 s
Time until cells responded with increase in [Ca2+] (M3 muscarinic receptors; cells in 3D): ≤ 30 s

NC[C@H](O)c1ccc(O)c(O)c1 [norepinephrine, norepinephrine hydrochloride]
Secretory granules (β adrenergic receptors; 2.5D and 3D): displayed multiple secretory granules

VEGF
Kd (HP): 165 nM

B1: FGF7: heparin-binding growth factor (protein, UniProt P21781 32-194, looked up)
Fibroblast growth factor 7: CNDMTPEQMATNVNCSSPERHTRSYDYMEGGDIRVRRLFCRTQWYLRIDKRGKVKGTQEMKNNYNIMEIRTVAVGIVAIKGVESEFYLAMNKEGKLYAKKECNEDCNFKELILENHYNTYASAKWTHNGGEMFVALNQKGIPVRGKKTKKEQKTAHFLPMAIT
Spheroid size [1]: increases spheroid size
Kd (HP): 30 to 49 nM
